Results: patent publication US6291527A (priority 1998, dated 2001)
Where a name gives a salt, the structure may show the parent alone.

Experiments:
[1] = system: prostaglandin E2 (PGE2); assay: foreign body (sponge) method in the rat: PGE2 in the inflammatory exudate (immunoenzymatic assay); format: in vivo; conditions: rat, oral, listed as KLS; for PGE2 concentration in the inflammatory exudate / % inhibition versus controls of PGE2: 8 hours; for PGE2 concentration in the inflammatory exudate: mean, controls 98.7 ± 4.7
Description: (§1) These tests involved the use of 100 male CD strain rats (Charles River, Calco, LC, Italy) weighing 180±8 g. The animals were fasted for 12 hours (water ad libitum) before being used for the experiment.
(§2) The inflammatory reaction with the formation of exudate was induced by using sterilized polyester sponges (4×1.5×0.5 cm) soaked in carrageen dissolved at a 2% concentration in sterile physiological solution. The rats were anesthetized lightly with ether and two sponges per rat were implanted subcutaneously in a previously shaven dorsal area.
(§3) The sponges were removed 8 hours later after having sacrificed the animals by ether euthanasia, and immediately placed in large polyethylene 50 ml test tubes containing 10 ml of heparinized physiological solution. The test tubes were then subjected to centrifugation (1000 rotations; 15 minutes), followed by removal of the sponges and accurate measurement of the volume of the remaining fluid. Always using the Higgs et al. method, the acid lipids present in the fluid were extracted in chloroform with prior dilution in ethanol and acidification to pH 3. After complete evaporation of the chloroform, the remaining dry residue was dissolved in physiological solution and used for the immunoenzymatic assay of prostaglandin E2 (PGE2).
(§4) All the other reagents used for the tests were purchased from Merck-Bracco (Milan, Italy).

[2] = system: inflammatory exudate (IE); assay: foreign body (sponge) method in the rat: inflammatory exudate volume; format: in vivo; conditions: for IE (inflammatory exudate) volume / % inhibition versus controls of IE: 8 hours; for IE (inflammatory exudate) volume: mean ± MSE, controls 5.15 ± 0.28
Description: as §1, §2, §3, §4

[3] = system: carrageen edema; assay: carrageen edema test in the rat (hind paw volume, plethysmometer); conditions: rat, oral; for evolution of paw volume (delta in ml) at 1st hour / evolution of paw volume (delta in ml) at 2nd hour / evolution of paw volume (delta in ml) at 3rd hour / evolution of paw volume (delta in ml) at 4th hour / evolution of paw volume (delta in ml) at 5th hour / evolution of paw volume (delta in ml) at 6th hour: mean ± MSE; for % inhibition vs controls (paw edema AUC): p < 0.001; for AUC (mean ± MSE) of increase in paw volume: paw volume (delta in ml) vs time (0 to 6 hours), controls 4.23 ± 0.26; for oral ED50 (carrageen edema, extrapolated from AUC): 95% conf. lim. KGS 0.733-1.474, KLS 1.198-1.567
[4] = animal studies of the three salts vs Ketoprofen acid and Ketoprofen sodium salt: distribution and kinetics; format: in vivo, experimental animals; conditions: for active substance concentration in the inflamed site: injection, vs Ketoprofen sodium salt; for kinetic parameters after oral administration: vs Ketoprofen acid and Ketoprofen sodium salt
From the text: The three above mentioned Ketoprofen salts were compared with Ketoprofen acid and Ketoprofen sodium salt in animal studies.

[5] = rat, oral, 0.5 mg/kg, listed as KLS
[6] = rat, oral, 1 mg/kg, listed as KLS
[7] = rat, oral, 2 mg/kg, listed as KLS
[8] = rat, oral, 4 mg/kg, listed as KLS

SMILES: CC(C(=O)O)c1cccc(C(=O)c2ccccc2)c1 (stereo not shown) [Ketoprofen Lysine salt]
- PGE2 concentration in the inflammatory exudate ([1]; 0.5 mg/kg): 78.1 ng/mL
- % inhibition versus controls of PGE2 ([1]; 0.5 mg/kg): 20.9%
- PGE2 concentration in the inflammatory exudate ([1]; 1 mg/kg): 67.9 ng/mL
- % inhibition versus controls of PGE2 ([1]; 1 mg/kg): 31.2%
- PGE2 concentration in the inflammatory exudate ([1]; 2 mg/kg): 55.6 ng/mL
- % inhibition versus controls of PGE2 ([1]; 2 mg/kg): 43.7%
- PGE2 concentration in the inflammatory exudate ([1]; 4 mg/kg): 32.8 ng/mL
- % inhibition versus controls of PGE2 ([1]; 4 mg/kg): 66.8%
- PGE2 oral ED50 ([1]; 95% confidence limits KGS 1.848-2.131, KLS 2.215-3.005, 480 min): 2.610 mg/kg
- control of the inflammatory response to sponge implantation ([2]; rat, 0.5, 1, 2 and 4 mg/kg per os): able to control the inflammatory response
- IE (inflammatory exudate) volume [2, 5]: 4.33 ± 0.26 mL
- % inhibition versus controls of IE [2, 5]: 15.9%
- IE (inflammatory exudate) volume [2, 6]: 3.82 ± 0.15 mL
- % inhibition versus controls of IE [2, 6]: 25.8%
- IE (inflammatory exudate) volume [2, 7]: 2.97 ± 0.19 mL
- % inhibition versus controls of IE [2, 7]: 42.3%
- IE (inflammatory exudate) volume [2, 8]: 1.68 ± 0.14 mL
- % inhibition versus controls of IE [2, 8]: 67.4%
- IE oral ED50 ([2]; rat, oral, 95% confidence limits KGS 1.802-2.381, KLS 2.334-3.094, 480 min, listed as KLS): 2.714 mg/kg
- evolution of paw volume (delta in ml) at 1st hour ([3]; 0.5 mg/kg, controls 0.40 ± 0.02, listed as KLS): 0.32 ± 0.02 mL
- evolution of paw volume (delta in ml) at 2nd hour ([3]; 0.5 mg/kg, controls 0.71 ± 0.02, listed as KLS): 0.53 ± 0.03 mL
- evolution of paw volume (delta in ml) at 3rd hour ([3]; 0.5 mg/kg, controls 0.87 ± 0.03, listed as KLS): 0.66 ± 0.04 mL
- evolution of paw volume (delta in ml) at 4th hour ([3]; 0.5 mg/kg, controls 0.93 ± 0.03, listed as KLS): 0.70 ± 0.03 mL
- evolution of paw volume (delta in ml) at 5th hour ([3]; 0.5 mg/kg, controls 0.90 ± 0.04, listed as KLS): 0.68 ± 0.02 mL
- evolution of paw volume (delta in ml) at 6th hour ([3]; 0.5 mg/kg, controls 0.84 ± 0.04, listed as KLS): 0.64 ± 0.03 mL
- % inhibition vs controls (paw edema AUC) ([3]; 0.5 mg/kg, listed as KLS): 24.1%
- AUC (mean ± MSE) of increase in paw volume ([3]; 0.5 mg/kg, listed as KLS, 0.5 mg/kg): 3.21 ± 0.17
- evolution of paw volume (delta in ml) at 1st hour ([3]; 1 mg/kg, listed as KLS): 0.24 ± 0.02 mL
- evolution of paw volume (delta in ml) at 2nd hour ([3]; 1 mg/kg, listed as KLS): 0.43 ± 0.03 mL
- evolution of paw volume (delta in ml) at 3rd hour ([3]; 1 mg/kg, listed as KLS): 0.54 ± 0.03 mL
- evolution of paw volume (delta in ml) at 4th hour ([3]; 1 mg/kg, listed as KLS): 0.59 ± 0.03 mL
- evolution of paw volume (delta in ml) at 5th hour ([3]; 1 mg/kg, listed as KLS): 0.57 ± 0.03 mL
- evolution of paw volume (delta in ml) at 6th hour ([3]; 1 mg/kg, listed as KLS): 0.49 ± 0.03 mL
- % inhibition vs controls (paw edema AUC) ([3]; 1 mg/kg, listed as KLS): 38.0%
- AUC (mean ± MSE) of increase in paw volume ([3]; 1 mg/kg, listed as KLS, 1 mg/kg): 2.62 ± 0.12
- evolution of paw volume (delta in ml) at 1st hour ([3]; 2 mg/kg, listed as KLS): 0.13 ± 0.02 mL
- evolution of paw volume (delta in ml) at 2nd hour ([3]; 2 mg/kg, listed as KLS): 0.23 ± 0.02 mL
- evolution of paw volume (delta in ml) at 3rd hour ([3]; 2 mg/kg, listed as KLS): 0.28 ± 0.02 mL
- evolution of paw volume (delta in ml) at 4th hour ([3]; 2 mg/kg, listed as KLS): 0.29 ± 0.02 mL
- evolution of paw volume (delta in ml) at 5th hour ([3]; 2 mg/kg, listed as KLS): 0.28 ± 0.02 mL
- evolution of paw volume (delta in ml) at 6th hour ([3]; 2 mg/kg, listed as KLS): 0.23 ± 0.03 mL
- % inhibition vs controls (paw edema AUC) ([3]; 2 mg/kg, listed as KLS): 68.6%
- AUC (mean ± MSE) of increase in paw volume ([3]; 2 mg/kg, listed as KLS, 2 mg/kg): 1.33 ± 0.07
- oral ED50 (carrageen edema, extrapolated from AUC) [3]: 1.383 mg/kg
- oral ED50 (carrageen edema, extrapolated from AUC) ([3]; listed as KLS): 1.383 mg/kg

SMILES: CC(C(=O)O)c1cccc(C(=O)c2ccccc2)c1 (stereo not shown) [Ketoprofen Proline salt]
- active substance concentration in the inflamed site [4]: intermediate concentrations between the sodium salt and the Glucosamine salt
- kinetic parameters after oral administration [4]: significantly different

SMILES: CC(C(=O)O)c1cccc(C(=O)c2ccccc2)c1 (stereo not shown) [Ketoprofen Hydroxyproline salt]
- active substance concentration in the inflamed site [4]: intermediate concentrations between the sodium salt and the Glucosamine salt
- kinetic parameters after oral administration [4]: significantly different
